From PMC12439141, “Self-Assembling Hydrogels of Naproxen-Conjugated Peptides for Osteoarthritis Treatment” (Theranostics, 2025)

Columns and labels:
[1] = Zeta potential measurements; assay type: physicochemical; settings: 400 µM; pH:7.2 (Figure 2F legend), text says physiological pH 7.4
Text: Scale bars represent 200 nm.
Under physiological conditions, glutamic acid carries a negative charge, while histidine, lysine, and arginine carry positive charges.

[2] = TEM imaging of assemblies; assay type: physicochemical; settings: TEM images
Method: (C) FTIR spectra of NpxFFR (light green), NpxFFK (orange), NpxFFH (dark green), NpxFFE (purple) and Npx (medium spring green). (D) Hydrogel formation of Npx-peptide conjugates at 20 mg/mL concentration in ddH2O. […] (F) Zeta potential measurements of 400 µM Npx-peptide conjugates at pH:7.2. (G) TEM images of Npx and Npx-peptide conjugates. Scale bars represent 200 nm.

C28/I2 chondrocytes = test: Chondrocyte proliferation (Calcein-AM staining and MTT quantification); assay type: cell-based, human; settings: C28/I2 chondrocytes, 1, 2 and 3 days, compared to non-treated control
[3] = tested on: LPS-stimulated RAW264.7 cells; test: COX-2 and pro-inflammatory factor expression (qRT-PCR, immunofluorescence); assay type: cell-based, mouse; settings: RAW264.7, 1 µg/mL LPS, 400 µM; 6 h, 12 h (PCR), 12 h or 24 h (immunofluorescence)
Method: After treatment, cells were harvested and total RNA was extracted using a total RNA purification kit (SparkJade, China), and cDNA was obtained from total RNA by a reverse transcription kit (SparkJade). Finally, qRT-PCR was performed using SYBR Green qPCR premix (SparkJade) on QuantGene 9600 real-time PCR (Bioer, Hangzhou, China). 2 Calculation of Relative Gene Expression-ΔΔCT method was used, and GAPDH was used as an internal reference gene.
Immunofluorescence staining was performed following a general procedure. After treatment, cells were fixed with 4% paraformaldehyde for 20 min, and permeabilized in 0.5% Triton X-100 for 5 min. 10% goat serum was used to block non-specific binding. Cells were then incubated with primary antibodies overnight. Then cells were incubated with fluorescently labeled secondary antibody for 1 h. […] For assessing RAW264.7 macrophage polarization, permeabilization procedure is not needed; anti-CD86 and anti-CD163 primary antibodies were used for identifying M1 macrophage or M2 macrophage, respectively. Primary antibodies included: anti-CD86 (1:300), anti-CD163 (1:300), anti-COX2 (1:300) and anti-COL2 (1:300). Cy3 or FITC labeled secondary antibodies were used for fluorescent imaging.

[4] = tested on: LPS-stimulated RAW264.7 cells; test: ELISA quantification of PGE2; assay type: cell-based, mouse; settings: 400 µM, 6 h, 12 h, n = 3
Text: Figure 4 COX-2 inhibition of NpxFFK. (A) molecular docking of COX-2 (PDB ID: 6COX) with NpxFFK. (B) Binding of NpxFFK with amino acid residues in the active pocket of COX-2. (C) Schematic representation of the anti-inflammatory mechanism of Npx and the peptide NpxFFK. […] Scale bars represent 200 µm. […] The blank groups in panel D-G referred to the RAW264.7 cells without stimulation of LPS.

[5] = DPPH free radical scavenging test; settings: PBS (pH 7.2), 400 µM, 2 h, 25 °C, absorbance 517 nm, n = 3
Method: (§1) DPPH free radical scavenging test
(§2) DPPH (2, 2-Diphenyl -1-[…]) radical solution (0.58 mg/mL) was prepared by dissolving DPPH radical in anhydrous ethanol. Briefly, 6mg of […]
(§3) solution which were then incubated in dark for 2 h at 25°C. The absorbance of the mixed solution at 517 nm was measured using an enzyme-labeled instrument. The scavenging ability was calculated as DPPH free radical scavenging rate (%) = [(A0-A1)/A0] × 100%, where A0 is the absorbance of DPPH free radical solution, A1 is the absorbance of sample group. The experiment was repeated three times for each sample.
(§4) ABTS·+ free radical scavenging test […]
(§5) free radical solution, and then incubated at 25 °C for 30 mins in dark. The absorbance at 734 nm was measured using an enzyme-labeled instrument.
(§6) ABTS+ free radical scavenging activity is calculated according to the following formula: ABTS+ free radical scavenging rate (%) = [(A0-A1)/A0] × 100%, where A0 is the absorbance of ABTS+ free radical solution, and A1 is the absorbance of sample group. […]
(§7) Figure S14. Quantitative analysis of immunofluorescent staining of macrophages in Figure 5A and 5B. […]
(§8) Figure S16. Quantitative analysis of ROS fluorescent intensities (A) in Figure 5D, and fluorescent ratio of JC-1 in aggregate to monomer (B) in Figure 5E. […]

[6] = ABTS+ free radical scavenging test; settings: PBS (pH 7.2), 400 µM, 30 mins, 25 °C, absorbance 734 nm, n = 3
Method: as §1, §2, §3, §4, §5, §6, §7, §8

OA rat model [7] = test: Footprint gait analysis in MIA-induced OA rats; assay type: in vivo, SD rats; settings: IA injection, 100 mg/kg, 2 weeks
Method: The OA model was induced by local injection of 50 µL/1mg sodium iodoacetate (MIA) into the joint cavity of each rat. Rats injected with saline were treated as the sham group (n = 6). […] Each group contained 6 rats. 50 µL drugs were injected locally at day 0 and day 14, respectively. After 14 days of treatment, the rats were examined by indentation-collecting gait analysis, after which the rats were euthanized with isoflurane, and the knee joints were sampled for gross morphological observation. After 28 days of treatment, sampling was performed for micro-CT analysis, histological staining and immunohistochemistry.
The cardboard is laid flat on the floor. Both forelimbs of the rats were covered with blue ink and both hind legs with red ink, ensuring that the movements of the animals were as clear as possible. The sides of the runway consisted of cardboard, and the width was rationalized according to the weight and size of the rat. The room environment was kept quiet and the rats were placed on one side of the runway and allowed to pass freely. Before the start of the experiment, the rats were given two consecutive days of behavioral acclimatization training.

OA rat model [8] = test: Immunofluorescence and immunohistochemistry of joint sections in OA rats; assay type: in vivo, SD rats; settings: 100 mg/kg IA, 4 weeks
Method: The knee joints were fixed in 4% paraformaldehyde, decalcified for 4 weeks, and embedded in paraffin for histological evaluation. Subsequently, the samples were sectioned and stained with hematoxylin and eosin (H&E) as well as […]/Fast Green. An enhanced Mankin scoring system was used to assess the pathologic status of the knee joint. Sections were incubated overnight at 4 °C with primary antibodies and further stained with a fluorescently labeled secondary antibody or 3,3'-diaminobenzidine (DAB)-tagged secondary antibody for immunohistochemical analysis.

Zeta Potential [1]: -20.3 mV
Morphology of assemblies (TEM) [2]: uneven aggregates
Compound: COc1ccc2cc([C@H](C)C(=O)O)ccc2c1 [Npx, naproxen]
Effect on chondrocyte proliferation (C28/I2 chondrocytes): the proliferation decreased over time
COX-2 expression at gene level and protein level [3]: downregulated COX-2 expression
PGE2 production [4]: reduced PGE2 production
DPPH radical scavenging activity [5]: neglectable radical scavenge activity
ABTS+ radical scavenging activity [6]: neglectable radical scavenge activity
Stride length (OA rat model [7]; sham 12.83 cm, saline 7.57 cm): 9.42 cm
Hindpaw contact area (OA rat model [7]; versus sham and saline): partial improvement
Expression of COX-2, TNF-α and IL-1β in joint sections (OA rat model [8]): significantly reduced the expression of COX-2
